Experiments:
L6-myotubes [1] = test: Glucose uptake in differentiated L6-myotubes (Biological Example 2); format: cell-based; conditions: for Emax at 10 µM: read-out: Biological example 2 (GU)
In short: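 Differentiated L6 myotubes were serum-starved overnight in 0.5% fatty-acid-free BSA and then stimulated with compound or isoprenaline at 1×10^−5 M final. After 1 h 40 min cells were washed and re-dosed in glucose-free medium. Twenty minutes later, uptake of 50 nM ^3H-2-deoxyglucose over 10 min was measured by scintillation counting of NaOH lysates.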

L6-myotubes [2] = test: Measurement of intracellular cAMP levels in differentiated L6-myotubes (Biological Example 3); format: cell-based; conditions: for Emax at 10 µM: 0.25 h
In short: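 Serum-starved differentiated L6 myotubes stimulated 15 min with test compound at 1×10^−5 M final (isoprenaline as reference) in HBSS with 1% BSA, 5 mM HEPES, 1 mM IBMX, pH 7.4. Cells EtOH-extracted, lysed, and intracellular cAMP measured by AlphaScreen.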

[3] = glucose uptake in differentiated L6-myotubes, compound at 10 μM, activity relative to isoproterenol at 10 μM
[4] = intracellular cAMP in differentiated L6-myotubes, compound at 10 μM, activity relative to isoproterenol at 10 μM
[5] = glucose uptake, compound at 10 μM relative to isoproterenol at 10 μM
[6] = intracellular cAMP, compound at 10 μM relative to isoproterenol at 10 μM

Structure (SMILES)	Emax at 10 µM (L6-myotubes [1]; [3]) [%]	Emax at 10 µM (L6-myotubes [2]; [4]) [%]	Emax at 10 µM (L6-myotubes [1]; [5]) [%]	Emax at 10 µM (L6-myotubes [2]; [6]) [%]	also measured
O[C@H](c1cncc(F)c1)C12CCC(COCc3ccc(F)cc3)(CC1)N2 [Compound 443, (R)-(4-{[(p-fluorophenyl)methoxy]methyl}-7-azabicyclo[[2.2.1]]hept-1-yl)(5-fluoro-3-pyridyl)methanol]	> 75	25 to 50	–	–	–
CCC[C@H]1CCC[C@H]([C@@H](O)c2cncc(F)c2)N1 [Compound 139]	–	–	< 25	< 25	–
CC(C)(NC[C@H](O)c1cccc(F)c1)[C@H]1CC[C@H](O)CC1 [Compound 283, (R)-1-(m-fluorophenyl)-2-{1-methyl-1-[(1r,4R)-4-hydroxycyclohexyl]ethylamino}-1-ethanol]	50 to 75	< 25	–	–	–
O[C@@H](CNCC[C@H]1CC[C@H](OCc2ccccc2)CC1)c1cncc(F)c1 [Compound 292, (R)-1-(5-fluoro-3-pyridyl)-2-{2-[(1r,4R)-4-(benzyloxy)cyclohexyl]ethylamino}-1-ethanol]	< 25	< 25	–	–	–
CO[C@H]1CC[C@H](C[C@]2(C)CC[C@H]([C@H](O)c3cccc(F)c3)N2)CC1 [Compound 364, (R)-[(2R,5S)-5-methyl-5-{[(1r,4S)-4-methoxycyclohexyl]methyl}-2-pyrrolidinyl] (m-fluorophenyl)methanol]	> 75	50 to 75	–	–	–
O[C@@H](CNCC[C@H]1CC[C@H](OCc2ccccc2)CC1)c1cccc(F)c1 [Compound 288, (R)-1-(m-fluorophenyl)-2-{2-[(1r,4R)-4-(benzyloxy)cyclohexyl]ethylamino}-1-ethanol]	25 to 50	< 25	–	–	–
CC1(C)C[C@H]([C@H](O)c2cccc(F)c2)N1 [Compound 198, (R)-[(R)-4,4-dimethyl-2-azetidinyl](m-fluorophenyl)methanol]	> 75	< 25	–	–	–
CCC[C@H]1CCC[C@H]([C@H](O)c2ccc(F)cc2)N1 [Compound 92]	–	–	25 to 50	< 25	–
CO[C@H]1CC[C@H](CCC23CCC([C@@H](O)c4cccc(F)c4)(CC2)N3)CC1 [Compound 410]	–	–	–	–	Biological example 2 (GU) (L6-myotubes [1]; [3]): ++ (if it is between 75 and 50% it is denoted with ++); Biological example 3 (CAMP) (L6-myotubes [2]; [4]): − (if it less than 25% it is denoted with −)
O[C@@H](CNC[C@H]1CC[C@@H](O)CC1)c1cncc(F)c1 [Compound 269, (R)-1-(5-fluoro-3-pyridyl)-2-({[(1s,4S)-4-hydroxycyclohexyl]methyl}amino)-1-ethanol]	25 to 50	< 25	–	–	–
CCCCNCC(O)c1cc(O)cc(O)c1 (centres unmarked) [Compound 26, 5-[2-(butylamino)-1-hydroxyethyl]resorcinol]	–	–	50 to 75	< 25	–
CS(=O)(=O)N[C@H]1CC[C@@H](CNC[C@H](O)c2cccc(F)c2)CC1 [Compound 312, (R)-1-(m-fluorophenyl)-2-({[(1s,4S)-4-(mesylamino)cyclohexyl]methyl}amino)-1-ethanol]	50 to 75	< 25	–	–	–
CC1(C)CC[C@@H]([C@@H](O)c2cccc(O)c2)N1 [Compound 143]	–	–	< 25	< 25	–
C[C@H]1CC[C@@H]([C@H](O)c2cccc(O)c2)N1 (racemic) [Compound 40, Racemic mixture of m-{(R)-[(2S,5S)-5-methyl-2-pyrrolidinyl] hydroxymethyl} phenol and m-{(S)-[(2R,5R)-5-methyl-2-pyrrolidinyl] hydroxymethyl} phenol]	–	–	50 to 75	< 25	–
O[C@@H](c1cccc(F)c1)[C@H]1CC[C@@H](Cc2ccc(Cl)cc2)N1 [Compound 391, (S)-{(2R,5S)-5-[(p-chlorophenyl)methyl]-2-pyrrolidinyl}(m-fluorophenyl)methanol]	50 to 75	< 25	–	–	–
CCC[C@H]1CCC[C@@H]([C@@H](O)c2cccc(O)c2)N1 [Compound 121]	–	–	> 75	< 25	–

Reference: patent publication US20260216294A1, “BETA 2-ADRENERGIC RECEPTOR AGONISTS FOR TREATMENT OR PREVENTION OF MUSCLE WASTING” (ATROGI AB, priority 2023, published 2026)
